From ChEMBL document CHEMBL3885881, “DrugMatrix”

Organism: Rattus norvegicus
Test: DrugMatrix - Regimen: Daily Repeat
Assay type: toxicity, organism-based, Sprague-Dawley
Design: regimen Daily Repeat, gender Male, age 6-8 weeks
Details: in vivo, po, route oral GAVAGE, vehicle 100 % SALINE; for ABSOLUTE BASOPHIL / ABSOLUTE EOSINOPHIL / ABSOLUTE LYMPHOCYTE / ABSOLUTE MONOCYTE / ABSOLUTE SEGMENTED NEUTROPHIL / BASOPHIL / EOSINOPHIL / ERYTHROCYTE COUNT / HEMATOCRIT / HEMOGLOBIN / LEUKOCYTE COUNT / LYMPHOCYTE / MEAN CORPUSCULAR HEMOGLOBIN / MEAN CORPUSCULAR HEMOGLOBIN CONCENTRATION / MEAN CORPUSCULAR VOLUME / MONOCYTE / NEUTROPHIL / NUCLEATED RED BLOOD CELLS / PLATELET COUNT: tissue Blood; for ALANINE AMINOTRANSFERASE / ALBUMIN / ALKALINE PHOSPHATASE / ASPARTATE AMINOTRANSFERASE / BLOOD UREA NITROGEN / CARBON DIOXIDE / CHLORIDE / CHOLESTEROL / CREATINE PHOSPHOKINASE / CREATININE / GLUCOSE / LACTATE DEHYDROGENASE / LIPASE / PHOSPHORUS / POTASSIUM / SODIUM / TOTAL BILIRUBIN / TOTAL PROTEIN / URIC ACID: tissue Plasma
[1] = 0 mg/kg, 72 h, dose level Control, time 3 day
[2] = 0 mg/kg, 120 h, dose level Control, time 5 day
[3] = 34 mg/kg, 72 h, dose level High, time 3 day
[4] = 34 mg/kg, 120 h, dose level High, time 5 day

CCN(CC)N=O [N-NITROSODIETHYLAMINE]
ABSOLUTE BASOPHIL [1]: 0 CELLS/uL | ABSOLUTE EOSINOPHIL [1]: 0 CELLS/uL | ABSOLUTE LYMPHOCYTE [1]: 8960.83 CELLS/uL | ABSOLUTE MONOCYTE [1]: 103.5 CELLS/uL | ABSOLUTE SEGMENTED NEUTROPHIL [1]: 635.67 CELLS/uL | BASOPHIL [1]: 0% | EOSINOPHIL [1]: 0% | ERYTHROCYTE COUNT [1]: 5.09 x10E6/uL | HEMATOCRIT [1]: 31.8% | HEMOGLOBIN [1]: 12.42 G/DL | LEUKOCYTE COUNT [1]: 9.7 x10E3/uL | LYMPHOCYTE [1]: 92.33% | MEAN CORPUSCULAR HEMOGLOBIN [1]: 24.4 pg | MEAN CORPUSCULAR HEMOGLOBIN CONCENTRATION [1]: 39.07 G/DL | MEAN CORPUSCULAR VOLUME [1]: 62.47 fL | MONOCYTE [1]: 1% | NEUTROPHIL [1]: 6.67% | NUCLEATED RED BLOOD CELLS [1]: 0 /100WBC | PLATELET COUNT [1]: 466.5 x10E3/uL | ALANINE AMINOTRANSFERASE [1]: 83.33 u/L | ALBUMIN [1]: 4.33 G/DL | ALKALINE PHOSPHATASE [1]: 340.5 u/L | ASPARTATE AMINOTRANSFERASE [1]: 189.83 u/L | BLOOD UREA NITROGEN [1]: 15.83 mg/dL | CARBON DIOXIDE [1]: 38 mmol/L | CHLORIDE [1]: 96.83 MEQ/L | CHOLESTEROL [1]: 72.5 mg/dL | CREATINE PHOSPHOKINASE [1]: 370.67 u/L | CREATININE [1]: 0.28 mg/dL | GLUCOSE [1]: 182.83 mg/dL | LACTATE DEHYDROGENASE [1]: 513.5 u/L | LIPASE [1]: 9.83 u/L | PHOSPHORUS [1]: 11.32 mg/dL | POTASSIUM [1]: 6.32 MEQ/L | SODIUM [1]: 145.12 MEQ/L | TOTAL BILIRUBIN [1]: 0.2 mg/dL | TOTAL PROTEIN [1]: 6.4 G/DL | URIC ACID [1]: 2.03 mg/dL | ABSOLUTE BASOPHIL [2]: 0 CELLS/uL | ABSOLUTE EOSINOPHIL [2]: 43.83 CELLS/uL | ABSOLUTE LYMPHOCYTE [2]: 7316.67 CELLS/uL | ABSOLUTE MONOCYTE [2]: 87.33 CELLS/uL | ABSOLUTE SEGMENTED NEUTROPHIL [2]: 418.83 CELLS/uL | BASOPHIL [2]: 0% | EOSINOPHIL [2]: 0.33% | ERYTHROCYTE COUNT [2]: 4.77 x10E6/uL | HEMATOCRIT [2]: 29.93% | HEMOGLOBIN [2]: 11.48 G/DL | LEUKOCYTE COUNT [2]: 7.87 x10E3/uL | LYMPHOCYTE [2]: 93.5% | MEAN CORPUSCULAR HEMOGLOBIN [2]: 24.17 pg | MEAN CORPUSCULAR HEMOGLOBIN CONCENTRATION [2]: 38.57 G/DL | MEAN CORPUSCULAR VOLUME [2]: 62.68 fL | MONOCYTE [2]: 1% | NEUTROPHIL [2]: 5.17% | NUCLEATED RED BLOOD CELLS [2]: 0 /100WBC | PLATELET COUNT [2]: 377.67 x10E3/uL | ALANINE AMINOTRANSFERASE [2]: 89 u/L | ALBUMIN [2]: 4.42 G/DL | ALKALINE PHOSPHATASE [2]: 275.17 u/L | ASPARTATE AMINOTRANSFERASE [2]: 204.17 u/L | BLOOD UREA NITROGEN [2]: 15.33 mg/dL | CARBON DIOXIDE [2]: 36.83 mmol/L | CHLORIDE [2]: 94.67 MEQ/L | CHOLESTEROL [2]: 92 mg/dL | CREATINE PHOSPHOKINASE [2]: 514.5 u/L | CREATININE [2]: 0.24 mg/dL | GLUCOSE [2]: 184.17 mg/dL | LACTATE DEHYDROGENASE [2]: 648.67 u/L | LIPASE [2]: 10 u/L | PHOSPHORUS [2]: 12.33 mg/dL | POTASSIUM [2]: 6.51 MEQ/L | SODIUM [2]: 144.63 MEQ/L | TOTAL BILIRUBIN [2]: 0.18 mg/dL | TOTAL PROTEIN [2]: 6.7 G/DL | URIC ACID [2]: 2.33 mg/dL | ABSOLUTE BASOPHIL [3]: 0 CELLS/uL | ABSOLUTE EOSINOPHIL [3]: 38.67 CELLS/uL | ABSOLUTE LYMPHOCYTE [3]: 8206.67 CELLS/uL | ABSOLUTE MONOCYTE [3]: 88.33 CELLS/uL | ABSOLUTE SEGMENTED NEUTROPHIL [3]: 499.67 CELLS/uL | BASOPHIL [3]: 0% | EOSINOPHIL [3]: 0.33% | ERYTHROCYTE COUNT [3]: 6.73 x10E6/uL | HEMATOCRIT [3]: 41.13% | HEMOGLOBIN [3]: 15.77 G/DL | LEUKOCYTE COUNT [3]: 8.83 x10E3/uL | LYMPHOCYTE [3]: 93.33% | MEAN CORPUSCULAR HEMOGLOBIN [3]: 23.47 pg | MEAN CORPUSCULAR HEMOGLOBIN CONCENTRATION [3]: 38.37 G/DL | MEAN CORPUSCULAR VOLUME [3]: 61.23 fL | MONOCYTE [3]: 1% | NEUTROPHIL [3]: 5.33% | NUCLEATED RED BLOOD CELLS [3]: 0 /100WBC | PLATELET COUNT [3]: 912.67 x10E3/uL | ALANINE AMINOTRANSFERASE [3]: 112.33 u/L | ALBUMIN [3]: 4.2 G/DL | ALKALINE PHOSPHATASE [3]: 292.67 u/L | ASPARTATE AMINOTRANSFERASE [3]: 218.67 u/L | BLOOD UREA NITROGEN [3]: 13 mg/dL | CARBON DIOXIDE [3]: 38.67 mmol/L | CHLORIDE [3]: 96.33 MEQ/L | CHOLESTEROL [3]: 79.33 mg/dL | CREATINE PHOSPHOKINASE [3]: 309.67 u/L | CREATININE [3]: 0.53 mg/dL | GLUCOSE [3]: 161.33 mg/dL | LACTATE DEHYDROGENASE [3]: 311 u/L | LIPASE [3]: 9.67 u/L | PHOSPHORUS [3]: 11.2 mg/dL | POTASSIUM [3]: 6.34 MEQ/L | SODIUM [3]: 146.93 MEQ/L | TOTAL BILIRUBIN [3]: 0.2 mg/dL | TOTAL PROTEIN [3]: 6.03 G/DL | URIC ACID [3]: 2.2 mg/dL | ABSOLUTE BASOPHIL [4]: 0 CELLS/uL | ABSOLUTE EOSINOPHIL [4]: 0 CELLS/uL | ABSOLUTE LYMPHOCYTE [4]: 7416.33 CELLS/uL | ABSOLUTE MONOCYTE [4]: 148.33 CELLS/uL | ABSOLUTE SEGMENTED NEUTROPHIL [4]: 435.33 CELLS/uL | BASOPHIL [4]: 0% | EOSINOPHIL [4]: 0% | ERYTHROCYTE COUNT [4]: 6.58 x10E6/uL | HEMATOCRIT [4]: 41.63% | HEMOGLOBIN [4]: 15.6 G/DL | LEUKOCYTE COUNT [4]: 8 x10E3/uL | LYMPHOCYTE [4]: 94% | MEAN CORPUSCULAR HEMOGLOBIN [4]: 23.7 pg | MEAN CORPUSCULAR HEMOGLOBIN CONCENTRATION [4]: 37.47 G/DL | MEAN CORPUSCULAR VOLUME [4]: 63.27 fL | MONOCYTE [4]: 1.67% | NEUTROPHIL [4]: 4.33% | NUCLEATED RED BLOOD CELLS [4]: 0 /100WBC | PLATELET COUNT [4]: 607 x10E3/uL | ALANINE AMINOTRANSFERASE [4]: 90.67 u/L | ALBUMIN [4]: 3.93 G/DL | ALKALINE PHOSPHATASE [4]: 310.33 u/L | ASPARTATE AMINOTRANSFERASE [4]: 148 u/L | BLOOD UREA NITROGEN [4]: 13 mg/dL | CARBON DIOXIDE [4]: 37 mmol/L | CHLORIDE [4]: 95.67 MEQ/L | CHOLESTEROL [4]: 85.67 mg/dL | CREATINE PHOSPHOKINASE [4]: 246 u/L | CREATININE [4]: 0.16 mg/dL | GLUCOSE [4]: 139.33 mg/dL | LACTATE DEHYDROGENASE [4]: 200 u/L | LIPASE [4]: 13 u/L | PHOSPHORUS [4]: 11.33 mg/dL | POTASSIUM [4]: 6.73 MEQ/L | SODIUM [4]: 144.83 MEQ/L | TOTAL BILIRUBIN [4]: 0.23 mg/dL | TOTAL PROTEIN [4]: 5.43 G/DL | URIC ACID [4]: 1.9 mg/dL
